Data from patent publication US7736856B2, “Method of screening drug with the use of 67 kDa laminin receptor and drug obtained thereby” (Kyushu TLO Company, Limited, priority 2003, dated 2010).

What was measured:
[1] = target: T1, 67LR forced expression cells (A549 with 67LR expression vector) (Homo sapiens, UniProt P08865); experiment: Binding to 67LR forced expression cells by surface plasmon resonance sensor; conditions: for change of cell binding in 67LR forced expression cells: surface plasmon resonance biosensor, 5 μM; for angle change (binding amount): EGCG 5 μM
T1 construct: expressed in transfected cells; host or cells: A549 cells, transient transfection with pTARGET-hLamininR (FuGENE 6)
Protocol: (§1) The binding of various component (5 μM) to the cells was determined by using a surface plasmon resonance sensor SPR670 (Nippon Laser and Electronic Lab., Nagoya, Japan). For the measurement, the cells were fixed on a gold membrane (Nippon Laser and Electronic Lab.) according to a standard fixation method for protein. Precisely, a gold membrane was dipped in a solution in ethanol of […] of 4,4-dithiodibutyric acid, DDA (Tokyo Kasei Kogyo Co., Ltd., Tokyo, Japan) (this was prepared by dissolving 2.38 mg of DDA in 10 ml of 99% ethanol followed by diluting it with ethanol to 1/100) in such a manner that its gold surface could face upward, and gently stirred at room temperature for 30 minutes. Next, this was washed twice with ethanol with no pressure applied to the gold surface to thereby introduce a self-assembly membrane (SA membrane). 25 mg of a water-soluble carbodiimide, EDC (Wako Pure Chemicals) was dissolved in 1 ml of ultra-pure water; and 15 mg of N-hydroxysuccinimide, NHS (Wako Pure Chemicals) was dissolved in 9 ml of 1,4-dioxane (Nacalai Tesque, Inc.). These solutions were mixed, and the SA membrane-processed gold membrane was dipped into the mixture, and gently stirred at room temperature for 10 minutes. 10 ml of ultra-pure water was added, and further stirred at room temperature for 5 minutes. This was washed twice with ultra-pure water with no water pressure applied to the gold surface thereof, then dried (in air), and mounted on a cartridge. The cells were suspended to a density of 3×10^5 cells/ml (in a flow buffer, PBS), and 20 μl of the cell suspension was dropwise applied onto the gold membrane and kept at room temperature for 30 minutes so as to fix the cells onto the membrane. Next, a green tea catechin diluted with PBS to have a concentration of 1, 10, 25 or 50 μM was applied thereto, and the change in the surface plasmon resonance angle was determined so as to monitor its binding to the cells.
(§2) 67LR is a membrane protein existing in a cell membrane, and the fact that the EGCG effect was enhanced in the cells with the gene expression vector introduced therein would be due to the increase in the EGCG binding. Accordingly, the EGCG binding to the cells was determined by the sue of a surface plasmon resonance sensor. EGCG was used at 5 μM.

[2] = system: 67LR forced expression cells (A549); experiment: Cell growth test (cell count, Tripanblue staining) on 67LR transient expression A549 cells; type: cell-based, human; conditions: for number of the cells / growth inhibiting effect (influence of 67LR gene introduction) / survival rate (influence of 67LR gene introduction): 5 μM, 0.5 μg pTARGET-hLamininR in A549 cells; for survival rate (influence of 67LR gene introduction): Tripanblue staining
Protocol: The 67LR expression vector constructed (pTARGET-hLamininR) was introduced into A549 cells, using FuGENE™ 6 Transfection Reagent. Its details are described below. The cells were inoculated into a 10% FBS-ERDF medium at 1×10^4 cells/ml. By keeping at 37° C. for 24 hours, the cells were adhered to the medium. Next, a fresh ERDF medium was put into a tube, and FuGENE™ 6 (three times the amount of the gene) was directly added and gently mixed. Next, pTARGET-hLamininR was added and gently mixed, and this was kept at room temperature for 30 minutes. This was added to the medium, and kept at 37° C. for 48 hours. The cells were washed with a medium, and then the medium was changed with a fresh one.
(§3) Various components of various concentrations were added to the 67LR transient expression cells, and treated in a 5% FBS-containing ERDF medium at 37° C. for 48 hours. After the treatment, the number of the cells was counted, and the survival rate of the cells was determined according to a Tripanblue staining method.
Using FuGENE™ 6 Transfection Reagent, a 67LR expression vector (pTARGET-hLamininR) was introduced into A549 cells according to the method mentioned below. The cells were inoculated at 1×10^4 cells/ml (10% FBS-ERDF medium). After 24 hours, a fresh ERDF medium was put into a tube, and FuGENE™ 6 (three times the amount of the gene) was directly added and gently mixed. Next, pTARGET-hLamininR of varying concentrations were added and gently mixed, and this was kept at room temperature for 30 minutes. This was added to the medium, and was continuously cultured at 37° C. for 48 hours. EGCG of various concentrations were added to the 67LR transient expression cells, and treated with a 5% FBS-containing ERDF medium at 37° C. for 48 hours. After the treatment, the number of the cells was counted and the survival rate thereof was determined according to a Tripanblue staining method.
First, the influence of the substances on the growth of 67LR forced expression cells was investigated. Similarly to the above, 0.5 μg of pTARGET-hLamininR was introduced into A549 cells by the lipofection method, followed by cultivation at 37° C. for 48 hours. Then, the cells were treated with various tea components each having a final concentration of 5 μM. The cells were further cultivated at 37° C. for 48 hours, and then the number of the cells and the survival rate thereof were determined.

A549 cells = experiment: Binding to A549 cells (empty vector / parent) by surface plasmon resonance sensor; parameters: species or system human; conditions: for cell binding to A549 cells: surface plasmon resonance biosensor, 5 μM
Protocol: as §1, §2

[3] = target: T2, 67LR forced expression cells (Homo sapiens, UniProt P08865); experiment: Binding competition test of EGCG and anti-67LR antibody (surface plasmon resonance sensor); conditions: cells pretreated with anti-67LR antibody 10 μg/ml, 37° C., 30 minutes
T2 construct: expressed in transfected cells; host or cells: A549 cells, transient transfection with pTARGET-hLamininR (FuGENE 6)
Protocol: as §1, with “These solutions were mixed, and the SA membrane-processed gold membrane was dipped into the mixture, and gently stirred at room temperature for 10 minutes. 10 ml of ultra-pure water was added, and further stirred at room temperature for 5 minutes. This was washed twice with ultra-pure water with no water pressure applied to the gold surface thereof, then dried (in air), and mounted on a cartridge. The cells were suspended to a density of 3×10^5 cells/ml (in a flow buffer, PBS), and 20 μl of the cell suspension was dropwise applied onto the gold membrane and kept at room temperature for 30 minutes so as to fix the cells onto the membrane.” left out, “cells. […]” for “cells.”

[4] = target: T2, 67LR forced expression cells; experiment: Growth inhibition by EGCG after anti-67LR antibody pretreatment of 67LR forced expression cells; type: cell-based
Protocol: as §3
Regarding […] pretreatment, an anti-67LR antibody having a final concentration of 10 μg/ml (1% FBS-containing ERDF medium) was treated at 37° C. for 30 minutes, and then EGCG treatment was carried out so as to investigate the influence thereof on the antibody-treatment cells. As a negative control, the same treatment was carried out with mouse IgM.

67LR on cell surfaces = 67LR on cell surfaces (Homo sapiens, UniProt P08865); experiment: Flow cytometry: influence of EGCG treatment on detection of cell surface 67LR by anti-67LR antibody; type: binding
Protocol: It is known that 67LR is expressed on cell surfaces. Therefore, 67LR expressed on the surfaces of the cells was detected through flow cytometry analysis using an anti-human laminin receptor (LR) antibody. The cells were collected, and using a 1.5-ml Eppendorf tube, they were added to 100 μl, as a whole, of 1% FBS-PBS at 1×10^6 cells therein. A primary antibody, anti-human LR antibody was added to it to have a final concentration of 10 μg/ml. This was incubated at 4° C. for 30 minutes, and then washed once with PBS. Next, a secondary antibody, anti-mouse IgM FITC-labeled antibody capable of recognizing an isotype of LR antibody was added to 25 μl, as a whole, of 1% FBS-PBS so as to have a final concentration of 12.5 μg/ml. This was incubated at 4° C. for 30 minutes, then washed twice with PBS, and re-suspended in PBS, and analyzed with a flow cytometer. A negative control IgM antibody of the same concentration (10 μg/ml) was reacted in the same manner as herein. The 67LR expression amount on the cell surfaces was indicated by the center value of the fluorescent intensity of LR.
For the purpose of investigating the influence of EGCG treatment on the cell surface expression of 67LR, the cells were treated with an EGCG-added 1% FBS-PBS having a final EGCG concentration of 50 μM, and then kept at 37° C. for 30 minutes. This was washed once with PBS. Then, this was treated in the same manner as above with the primary antibody and others, and analyzed. As a control, the cells were treated with an EGCG-free 1% FBS-PBS.

Row | Compound | change of cell binding in 67LR forced expression cells [1] | number of the cells / growth inhibiting effect (influence of 67LR gene introduction) ([2]; 48 hours) | cell binding to A549 cells (A549 cells) | survival rate (influence of 67LR gene introduction) ([2]; 48 hours) | other results
1 | Cn1c(=O)c2c(ncn2C)n(C)c1=O [caffeine, Caffeine] | no change | no influence | did not show cell binding | – | –
2 | epigallocatechin-3-O-gallate [EGCG] | – | increase in the growth inhibiting effect | – | – | angle change (binding amount) ([1]; cells with 0.25 μg of 67LR expression vector): a great increase in the angle; angle change (binding amount) ([1]; cells with 0.5 μg of 67LR expression vector): a further greater increase in the angle; growth inhibiting activity ([2]; EGCG 0.1 μM, 67LR forced expression cells): showed its growth inhibiting activity; cell growth inhibition ([2]; EGCG of various concentrations, 67LR transiently expressed A549 cells, 5% FBS ERDF, 37° C., 48 hours): concentration-dependent cell growth inhibition was observed; cell growth inhibition versus 67LR gene amount introduced ([2]; pTARGET-hLamininR of varying concentrations, EGCG, 48 hours): in proportion to the 67LR gene amount introduced into the cells, cell growth inhibition was also observed; EGCG binding amount (angle change) [3]: reduction; EGCG binding speed [3]: reduction; survival rate ([4]; EGCG with or without antibody pretreatment, Tripanblue staining): no influence on the survival rate was found; growth inhibiting activity after antibody treatment ([4]; anti-67LR antibody treatment before EGCG): the growth inhibiting activity was lost; angle change (binding amount) (A549 cells; EGCG 5 μM, A549 cells with empty vector): Only a little angle change; apparent 67LR expression detected by anti-67LR antibody after EGCG (67LR on cell surfaces; EGCG 50 μM before antibody, 67LR-introduced cells): it was the same; apparent 67LR expression detected by anti-67LR antibody after EGCG (67LR on cell surfaces; EGCG 50 μM before antibody, cells with empty vector): The same phenomenon was found; apparent 67LR expression detected by anti-67LR antibody after EGCG (67LR on cell surfaces; EGCG 50 μM, 37° C., 30 minutes before antibody, control A549 cells): apparently disappeared
3 | O=C(O[C@@H]1Cc2c(O)cc(O)cc2O[C@@H]1c1ccc(O)c(O)c1)c1cc(O)c(O)c(O)c1 [ECG, epicatechin-3-O-gallate] | cell binding increased | increase in the growth inhibiting effect | showed cell binding though not comparable to that of EGCG | – | –
4 | Oc1cc(O)c2c(c1)O[C@H](c1cc(O)c(O)c(O)c1)[C@H](O)C2 [EGC, epigallocatechin] | no change | no influence | no binding | no influence | –
5 | catechin | no change | no influence | no binding | no influence | –
6 | O=c1c(O)c(-c2ccc(O)c(O)c2)oc2cc(O)cc(O)c12 [quercetin] | no change | no influence | did not show cell binding | no influence | –
7 | COc1cc(C(=O)O[C@@H]2Cc3c(O)cc(O)cc3O[C@@H]2c2cc(O)c(O)c(O)c2)cc(O)c1O [EGCG3″Me, epigallocatechin-3-(3-O-methyl)-gallate] | cell binding increased | increase in the growth inhibiting effect | showed cell binding though not comparable to that of EGCG | – | –
